Measured values reported in paper PMC7067379, “Mapping the S1 and S1’ subsites of cysteine proteases with new dipeptidyl nitrile inhibitors as trypanocidal agents” (PLoS Neglected Tropical Diseases, 2020).
Read-outs that look alike come from different tables or passages of the source.

Experiments:
cathepsin S (CatS) = cathepsin S (CatS) (Homo sapiens, UniProt P25774); assay: Cathepsin S enzyme inhibition; assay type: biochemical; conditions: for Ki: SD lower than 15%, read-out: pKi CatS (converted)
Chain of cathepsin S (CatS) (P25774 115-331): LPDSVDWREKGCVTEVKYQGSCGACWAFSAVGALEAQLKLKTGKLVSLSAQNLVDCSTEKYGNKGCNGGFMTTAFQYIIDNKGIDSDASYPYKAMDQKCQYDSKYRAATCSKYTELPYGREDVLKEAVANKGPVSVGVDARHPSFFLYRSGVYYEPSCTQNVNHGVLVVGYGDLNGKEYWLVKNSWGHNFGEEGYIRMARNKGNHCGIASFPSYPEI
Protocol: (§1) Enzyme inhibition studies for Cz and LmCPB were performed as previously described for Cz. The experimental procedures are described in the Supporting Information (see chapter S3). Cathepsins B, L, S were assayed as reported.

cathepsin B (CatB) = cathepsin B (CatB) (Homo sapiens, UniProt P07858); assay: Cathepsin B enzyme inhibition; assay type: biochemical; conditions: for remaining activity (%) at 10 μM, CatB: replicates = 2, n.i. = no inhibition observed at 10 μM; for Ki: SD lower than 15%, read-out: pKi CatB (converted)
[1] = Mammalian cytotoxicity assay (MTT); assay type: cell-based; conditions: rhesus monkey, LLCMK2 cells;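 also: Read-out is absorbance at 570 nm of formazan taken up in DMSO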
Protocol: LLCMK2 cells were cultured in 96-well plates at a concentration of 5 x 10^4 cells/ml. After 48 h, the plates were washed twice with PBS and 200 μL RPMI medium was added with serial dilutions of the compounds and benznidazole (1.95 μM to 250 μM) in triplicate. After 72 h at 37 °C, the cytotoxic activity of the compounds was determined by the classical MTT [3- (4,5-dimethylthiazol-2-yl) -2,5-diphenyltetrazolium bromide] method. Briefly, 50 μL MTT dissolved in PBS (2.0 mg mL^-1) was added to each well and the plates were incubated for 4 h at 37 °C. The formed formazan crystals were dissolved with DMSO (50 μL/well) and the absorbance of the samples was measured by spectrophotometer at 570 nm after 30 min.

cathepsin L (CatL) = cathepsin L (CatL) (Homo sapiens, UniProt P07711); assay: Cathepsin L enzyme inhibition; assay type: biochemical; conditions: for Ki: read-out: pKi CatL (converted)
Chain of cathepsin L (CatL) (P07711 114-333): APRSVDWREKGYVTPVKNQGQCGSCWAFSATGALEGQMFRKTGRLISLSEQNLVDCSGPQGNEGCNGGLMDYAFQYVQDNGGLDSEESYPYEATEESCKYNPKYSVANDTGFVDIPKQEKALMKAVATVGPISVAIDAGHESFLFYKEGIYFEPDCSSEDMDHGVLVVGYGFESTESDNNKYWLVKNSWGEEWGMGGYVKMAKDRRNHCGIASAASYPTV

[2] = target: Leishmania mexicana CPB (LmCPB) (Leishmania mexicana, UniProt P36400); assay: LmCPB enzyme inhibition; assay type: biochemical
Chain of Leishmania mexicana CPB (LmCPB) (P36400 126-443): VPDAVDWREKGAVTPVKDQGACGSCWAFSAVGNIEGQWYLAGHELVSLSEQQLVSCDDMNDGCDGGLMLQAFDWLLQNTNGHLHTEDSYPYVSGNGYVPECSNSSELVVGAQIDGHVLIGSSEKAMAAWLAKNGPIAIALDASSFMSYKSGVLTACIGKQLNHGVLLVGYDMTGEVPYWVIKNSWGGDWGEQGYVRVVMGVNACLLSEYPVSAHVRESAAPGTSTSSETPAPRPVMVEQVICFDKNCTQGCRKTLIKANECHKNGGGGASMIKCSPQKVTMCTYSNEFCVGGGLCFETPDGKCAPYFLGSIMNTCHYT
Protocol: as §1

[3] = tested on: T. cruzi Tulahuen LacZ strain, intracellular amastigote forms; assay: In vitro trypanocidal activity on intracellular amastigote forms (Tulahuen strain); assay type: cell-based, Trypanosoma cruzi; conditions: for EC50: Trypanosoma cruzi, TULAHUEN
Protocol: Cells were evaluated in 96-well plates. Cells from the LLCMK2 lineage were plated at a concentration of 5x10^4 cells mL^-1. Trypomastigote forms of the Tulahuen LacZ strain were added at a concentration of 5×10^5 parasites mL^-1 and placed in the incubator at 37°C with 5% CO2 for 24 h. After the incubation period, the trypomastigote forms present were removed by successive washes with PBS, remaining only as intracellular amastigote forms. Compounds were added at different concentrations (1.95 μM to 250 μM serial dilutions) and incubated for 72 h. At the end of this period, the substrate CPRG (chlorophenol red β-D-galactopyranoside, 400 μM in 0.3% Triton X-100, pH 7.4) was added. […] Benznidazole was used as a positive control in the same concentrations as the substances, and DMSO as a negative control. Compounds were solubilized in DMSO. The selectivity index (SI) was calculated using the formula: […]. All statistical analyses were done with the program GraphPad Prism v.5.

[4] = target: T1, Human recombinant cathepsin K (Homo sapiens, UniProt P43235); assay: Cathepsin K assay; assay type: biochemical; conditions: for Ki: SD lower than 15%, read-out: pKi CatK (converted)
T1 sequence (P43235 115-329): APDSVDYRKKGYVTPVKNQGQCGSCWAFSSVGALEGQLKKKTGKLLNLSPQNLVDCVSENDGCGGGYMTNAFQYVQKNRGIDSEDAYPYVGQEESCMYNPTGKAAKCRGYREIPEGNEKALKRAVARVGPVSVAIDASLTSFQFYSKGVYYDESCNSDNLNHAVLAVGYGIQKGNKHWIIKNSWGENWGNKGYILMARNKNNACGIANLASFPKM
Protocol: Human recombinant cathepsin K was assayed on a FLUOSTAR Optima plate reader at 25 °C with an excitation wavelength of 360 nm and an emission wavelength of 440 nm on a 96 well plate. The enzyme solution (23 μg/mL in 50 mM sodium acetate pH 5.5, 50 mM NaCl, 0.5 mM EDTA, 5 mM DTT) was diluted 1:100 with assay buffer (100 mM sodium citrate buffer pH 5.0, 100 mM NaCl, 1 mM EDTA, 0.01% CHAPS) containing 5 mM DTT and was then incubated at 37 °C for 30 min for activation. A 1.5 mM stock solution of the substrate Z-Leu-Arg-AMC was prepared in DMSO. […] The assay was performed with a final concentration of cathepsin K of 1.73 ng/mL. Stock solutions of inhibitors were prepared in DMSO. The final DMSO concentration was 2% (4 μL). Into a well containing 194.5 μL assay buffer, 0.8 μL of the fluorogenic substrate, DMSO and inhibitor solution (3.2 μL) were added. Upon addition of cathepsin K (1.5 μL), the measurement was started and followed for 20 min.

recombinant cruzain (Cz) = recombinant cruzain (Cz) (Trypanosoma cruzi, UniProt P25779); assay: Cruzain enzyme inhibition; assay type: biochemical
Chain of recombinant cruzain (Cz) (P25779 123-337): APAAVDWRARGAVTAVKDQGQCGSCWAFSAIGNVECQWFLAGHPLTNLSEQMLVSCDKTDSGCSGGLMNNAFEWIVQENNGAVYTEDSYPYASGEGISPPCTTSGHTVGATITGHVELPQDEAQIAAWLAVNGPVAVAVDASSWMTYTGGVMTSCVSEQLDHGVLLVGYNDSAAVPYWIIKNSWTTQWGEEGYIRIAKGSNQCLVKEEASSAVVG
Protocol: as §1

[5] = 10 μM, replicates = 2, n.i. = no inhibition observed at 10 μM
[6] = S1 Table, maximum concentration used 250 µM, read-out: CC50
[7] = S1 Table, maximum concentration used 250 µM, read-out: EC50 T. cruzi
[8] = T. cruzi amastigote form, S1 Table, read-out: pEC50 (converted)
[9] = amastigote forms of T. cruzi (Tuhaluen strain), Figs 12-14, unit inferred, read-out: EC50
[10] = SD lower than 15%, read-out: pKi LmCPB (converted)
[11] = SD lower than 15%, read-out: pKi Cz (converted)

**Q.** What does the source list for `CC(C)C[C@H](NC(=O)c1cc(C(C)(C)C)nn1C)C(=O)N[C@@H](C#N)[C@H](C)OCc1ccccc1` [Compound 59, N-((S)-1-(((1S,2S)-2-(Benzyloxy)-1-cyanopropyl)amino)-4-methyl-1-oxopentan-2-yl)-3-(tert-butyl)-1-methyl-1H-pyrazole-5-carboxamide]?
**A.** remaining activity at 10 µM (cathepsin S (CatS); [5]): 85%; remaining activity (%) at 10 μM, CatB (cathepsin B (CatB)): n.i.^c; CC50 at 72 h [1, 6]: > 100000 nM; remaining activity at 10 µM (cathepsin L (CatL); [5]): 90%; remaining activity at 10 µM ([2]; 10 μM, replicates = 2): 75%; EC50 [3, 7]: > 100000 nM; EC50 [3, 8]: > 100000 nM; EC50 [3, 9]: > 100000 nM; melting point: 110 to 111 °C; remaining activity (%) at 10 μM, CatK [4, 5]: n.i.^c; remaining activity at 10 µM (recombinant cruzain (Cz); 10 μM, replicates = 2): 60%

**Q.** With `Cn1nc(C(C)(C)C)cc1C(=O)N[C@@H](Cc1ccccc1)C(=O)N[C@H](C#N)Cc1cccc(Cl)c1` [Compound 54, 3-(tert-Butyl)-N-((S)-1-(((S)-2-(3-chlorophenyl)-1-cyanoethyl)amino)-1-oxo-3-phenylpropan-2-yl)-1-methyl-1H-pyrazole-5-carboxamide] as the compound, how does the Ki (cathepsin S (CatS)) read?
**A.** 79.4 nM

**Q.** What about the Ki (cathepsin B (CatB)) of the same compound?
**A.** 12600 nM

**Q.** What about the CC50 at 72 h ([1]; LLCMK2, 72 h, MTT, Table 2, read-out: CC50 cytotoxicity) of the same compound?
**A.** 44700 ± 5240 nM

**Q.** What about the Ki (cathepsin L (CatL); SD lower than 15%) of the same compound?
**A.** 5.01 nM

**Q.** And the Ki [2]?
**A.** 31.6 nM

**Q.** And the EC50 ([3]; 72 h, amastigote, Tulahuen strain, 72 h, Table 2, read-out: EC50 trypanocidal activity)?
**A.** 15800 ± 1430 nM

**Q.** What about the EC50 [3, 8] of the same compound?
**A.** 15800 nM

**Q.** And the “SI (selective index)” value ([3]; from EC50 (T. cruzi) and CC50 (LLCMK2), Table 2)?
**A.** 2.83

**Q.** What about the melting point of the same compound?
**A.** 132 to 133 °C

**Q.** What about the Ki [4] of the same compound?
**A.** 501 nM

**Q.** What about the Ki (recombinant cruzain (Cz)) of the same compound?
**A.** 31.6 nM

**Q.** Which Ki (cathepsin S (CatS)) does the source give for `CC(C)C[C@H](NC(=O)c1ccc(N)nc1)C(=O)NC1(C#N)CC1` [Compound 17, (S)-6-Amino-N-(1-((1-cyanocyclopropyl)amino)-4-methyl-1-oxopentan-2-yl)nicotinamide] here?
**A.** 25.1 nM

**Q.** And the “remaining activity (%) at 10 μM, CatB” value (cathepsin B (CatB))?
**A.** n.i.^c

**Q.** And the CC50 at 72 h [1, 6]?
**A.** > 100000 nM

**Q.** What about the Ki (cathepsin L (CatL); SD lower than 15%) of the same compound?
**A.** 316 nM

**Q.** What about the Ki [2, 10] of the same compound?
**A.** 158 nM

**Q.** What about the EC50 [3, 7] of the same compound?
**A.** > 100000 nM

**Q.** What about the EC50 [3, 8] of the same compound?
**A.** > 100000 nM

**Q.** What about the melting point of the same compound?
**A.** 100 to 101 °C

**Q.** And the Ki [4]?
**A.** 10 nM

**Q.** What about the Ki (recombinant cruzain (Cz); [11]) of the same compound?
**A.** 79.4 nM

**Q.** For `CC(C)C[C@H](NC(=O)c1cc(C(C)(C)C)nn1C)C(=O)N[C@H](C#N)[C@@H](C)OCc1ccccc1` [Compound 58, N-((S)-1-(((1R,2R)-2-(Benzyloxy)-1-cyanopropyl)amino)-4-methyl-1-oxopentan-2-yl)-3-(tert-butyl)-1-methyl-1H-pyrazole-5-carboxamide], which Ki (cathepsin S (CatS)) is on record?
**A.** 50.1 nM

**Q.** What about the Ki (cathepsin B (CatB)) of the same compound?
**A.** 7940 nM

**Q.** And the CC50 at 72 h [1, 6]?
**A.** > 100000 nM

**Q.** And the Ki (cathepsin L (CatL); SD lower than 15%)?
**A.** 63.1 nM

**Q.** What about the Ki [2, 10] of the same compound?
**A.** 20 nM

**Q.** What about the “difference in pKi, LmCPB” value ([2]; relative to compound 11, sign not given, direction by cell colour or wording) of the same compound?
**A.** 0.4

**Q.** And the EC50 [3, 7]?
**A.** > 100000 nM

**Q.** What about the EC50 [3, 8] of the same compound?
**A.** > 100000 nM

**Q.** What about the EC50 [3, 9] of the same compound?
**A.** > 100000 nM

**Q.** And the melting point?
**A.** 96 to 97 °C

**Q.** What about the Ki [4] of the same compound?
**A.** 15.8 nM

**Q.** And the Ki (recombinant cruzain (Cz); [11])?
**A.** 12.6 nM

**Q.** And the “difference in pKi, Cz” value (recombinant cruzain (Cz); relative to compound 9, sign not given, direction by cell colour or wording)?
**A.** 0.6

**Q.** What does the source list for `Cn1nc(C(C)(C)C)cc1C(=O)N[C@@H](Cc1ccccc1)C(=O)N[C@H](C#N)Cc1ccncc1` [Compound 55, 3-(tert-Butyl)-N-((S)-1-(((S)-1-cyano-2-(pyridin-4-yl)ethyl)amino)-1-oxo-3-phenylpropan-2-yl)-1-methyl-1H-pyrazole-5-carboxamide]?
**A.** Ki (cathepsin S (CatS)): 63.1 nM; Ki (cathepsin B (CatB)): 15800 nM; CC50 at 72 h [1, 6]: > 100000 nM; Ki (cathepsin L (CatL); SD lower than 15%): 5.01 nM; Ki [2]: 63.1 nM; EC50 [3, 7]: > 100000 nM; EC50 [3, 8]: > 100000 nM; Ki [4]: 316 nM; Ki (recombinant cruzain (Cz)): 31.6 nM

**Q.** Which results are given for `N#CC1(NC(=O)[C@H](Cc2ccccc2)NC(=O)c2ccccc2)CC1` [Compound 6]?
**A.** Ki (cathepsin S (CatS)): 79.4 nM; pKi CatL (cathepsin L (CatL); SD lower than 15%): 7.4; Ki [2, 10]: 251 nM; EC50 ([3]; read-out: EC50 T. cruzi, S1 Table, maximum concentration used 250 µM): > 100000 nM; EC50 ([3]; read-out: pEC50, T. cruzi amastigote form (converted), S1 Table): > 100000 nM; Ki [4]: 398 nM
